Laboratory results published in patent US10111884B2, “Methods and compositions for treating viral infections” (THE HONG KONG UNIVERSITY OF SCIENCE AND TECHNOLOGY, priority 2012, dated 2018).
Where two headings read alike, the source gives them in different places.

Tests used:
CMV [1] = assay: CMV plaque reduction assay in HFF monolayers; assay type: cell-based, human cytomegalovirus
Description: The CMV strains used were: AD169 (obtained from the American Type Culture Collection), and TB40/E. In addition, low-passage clinical isolates CI704, and CI893, recovered at the Hadassah Clinical Virology Laboratory from the urine of congenitally-infected newborns, and propagated for 3-5 passages, were used for some experiments. All CMV strains were propagated and titered in human foreskin fibroblasts (HFF) cells. Cell-free virus stocks and cell-associated clinical isolates were maintained at −70° C. Viral stocks were titered by serial 10-fold dilution in 24-well tissue culture plates containing HFF monolayers overlaid with agarose-medium. After incubation for 7 to 10 days, plaques were enumerated, and virus titer was determined as plaque forming units (PFU) per milliliter (ml). Stocks of artemisone, artemiside, RW177, compound IX, and artesunate were freshly prepared at 10 mM concentration in DMSO. Ganciclovir, stored as 10 mM stock was used in comparative assays.
Cell monolayers were inoculated in 24-well culture plates with 0.2 ml of virus suspension containing 60 to 100 PFU per well. After adsorption for 60 min at 37° C., the inoculum was removed, and culture medium was replaced with agarose-medium overlay containing the tested drug. The following final drug concentrations were used: Artemisone: 0, 0.1, 1, 5, 10, 25, and 50 μM; Artesunate: 0, 1, 5, 10, 25, 50, and 100 μM; Ganciclovir, artemiside, compound IX and RW177: 0, 0.1, 1, 5, 10, 25, and 50 μM. Plates were incubated for 10 days at 37° C. in a 5% CO2 incubator. Plaques were then counted microscopically. The drug concentration required to reduce the number of plaques to 50% of the control value (IC50), was calculated.
(§1) Antiviral activity of artemisone was determined by applying various drug concentrations to a growing virus in cell culture, using a standard plaque reduction assay. Artesunate, a compound known to have significant anti-viral activity, was tested in parallel. Ganciclovir was used as an additional positive control. The IC50 values of at least three separate experiments with each drug and virus were averaged, and the results are reported as mean±standard deviation values. Representative curves of plaque reduction assay for artemisone and artesunate are depicted in FIGS. 2A and 3A, respectively.

[2] = male rats, 50 mg/kg for 14 days; cited from earlier work
[3] = system: HCMV strain AD169 IE1/2 antigen; assay: Immunofluorescence assay of viral immediate early (IE1/2) gene expression; assay type: cell-based, human cytomegalovirus; settings: 24 hpi; for viral IE gene expression (in words): 25 μM
Experimental: (§2) Human foreskin fibroblasts (HFF) were infected with HCMV strain AD169. At 1 hour post infection (hpi), artemisone (25 μM) or ganciclovir (25 μM) were added to the growth medium, and the cells were further incubated in the presence of the drug, until prepared for immunofluorescence analysis at 24 and 72 hpi—to analyze the expression of IE and pp65, respectively. Control untreated infected cells, and mock-infected cells were analyzed in parallel.
(§3) Cells grown on 8-well glass slides were infected at a multiplicity of infection (moi) of 0.1 PFU/cell. Supernatant was removed at 24 and 72 hpi, and cells were washed 3 times with PBS and fixed with 3.7% formaldehyde for 30 minutes at room temperature. Cells were washed 5 times with PBS+1% NH4Cl, permeabilized by 0.1% TX100 for 5 minutes and washed 5 times with PBS+1% NH4Cl. After 1 hour of blocking using 1% BSA in PBS, the indicated primary monoclonal antibodies (IE1/2 or pp65) were added to the cells in appropriate dilution in 0.5% BSA in PBS and incubated either at room temperature for 2 hours or overnight at 4° C. The secondary antibody was added to the cells in appropriate dilution in PBS containing 0.5% BSA for 30 minutes at room temperature and washed by PBS.
(§4) Following mounting with commercial mounting media, with addition of 4′,6-diamidino-2-phenylindole (DAPI) nuclear stain (yielding nuclear blue stain in all cells), the cells were analyzed by fluorescence microscopy. Results were monitored on at least 3 independent experiments, scoring at least 5 fields (of between 500 and 800 cells each) for each treatment arm.

[4] = system: HCMV strain AD169 pp65 antigen; assay: Immunofluorescence assay of viral late (pp65) gene expression; assay type: cell-based, human cytomegalovirus; settings: 72 hpi; for viral late (pp65) gene expression (in words): 25 μM
Experimental: as §2, §3, §4

CMV [5] = assay: Quantification of viral DNA in infected cells by real-time PCR (CMV gB gene); assay type: cell-based, human cytomegalovirus; settings: FIGS. 2B, 3B
Experimental: Viral DNA quantity in infected cells with and without added drugs (expressed as genome copies/well) was determined by real-time PCR assay, following DNA extraction from cells, with the use of primers and probe derived from the CMV gB gene.
The results of Example 1 were confirmed by quantitation of viral DNA using real-time PCR. […] Representative curves of viral DNA accumulation for artemisone and artesunate are depicted in FIGS. 2B and 3B, respectively.

CMV [6] = assay: CMV antiviral activity in retinal epithelial cells (RPE) culture; assay type: cell-based, human cytomegalovirus
Experimental: as §1

human endothelial cells = settings: D'Alessandro et al., 2007; cited from earlier work
[7] = system: human foreskin fibroblasts (HFF) cells; assay: Cytotoxicity observed alongside plaque reduction assay; assay type: cell-based
[8] = preclinical in vitro and in vivo screens; cited from earlier work
HCMV strain TB40/E = assay: Antiviral drug susceptibility in ex-vivo HCMV-infected decidual organ cultures (normalized viral DNA); assay type: cell-based, human cytomegalovirus; settings: Human betaherpesvirus 5, TB40/E 10^5 PFU/well, 8 dpi, read-out: IC50 (drug concentration required to reduce normalized tissue viral DNA copy number by 50%)
Experimental: For infection of decidual organ cultures, the tissues were placed in 48-well plates (˜5 slices/well to maintain optimal viability) immediately after the sectioning and inoculated with the indicated virus (10^4 plaque forming units/well, unless indicated otherwise) for 12 hours to allow effective viral adsorption. Following viral adsorption, the cultures were washed extensively and further incubated for the duration of the experiment with replacement of the culture medium every 2-3 days.
DNA and RNA were extracted from the samples using the QIAamp DNA Mini Kit extraction kit and RNeasy Mini Kit (QIAGEN, Hilden, Germany) respectively, according to the manufacturer's instructions. The purified DNA samples were subjected to a quantitative real-time PCR reaction on a 7900HT Real Time PCR system (Applied Biosystems, Foster City, Calif., USA), using primers and probes derived from the HCMV glycoprotein B (gB) as described in Boeckh et al., 2004, J. Clin. Microbiol., 42, 1142-1148. […] The purified RNA samples were subjected to reverse transcription using GoScript™ (Promega, Madison, USA), followed by quantitative real-time PCR of the late HCMV R160461 spliced mRNA as described in White et al., 2004, J. Virol., 78, 1817-1830. […]

[9] = Human betaherpesvirus 5, 240 h, read-out: IC50 (drug concentration required to reduce the number of plaques to 50% of control), mean ± standard deviation
[10] = IE1 ± IE2 antigen, drug 25 μM, HFF, AD169
[11] = pp65 antigen, drug 25 μM, HFF, AD169

Structure (SMILES) | IC50 (CMV [1]; [9]) [nM] | viral IE gene expression (in words) [3] | CMV antigen-positive cells (%) [3, 10] [%] | viral late (pp65) gene expression (in words) [4] | CMV antigen-positive cells (%) [4, 11] [%] | IC50 (HCMV strain TB40/E) [nM] | other results
C[C@H]1[C@H](N2CCSCC2)O[C@@H]2O[C@@]3(C)CC[C@H]4[C@H](C)CC[C@@H]1[C@@]24OO3 [artemiside, reference compound] | > 40000 |  |  |  |  |  | 
CC1CCC2[C@@H](C)[C@H](N3CCS(=O)(=O)CC3)OC3O[C@]4(C)CCC1C32OO4 (stereo in doubt) [Artemisone] | 900 ± 300 | significant reduction | 0 | highly efficient reduction | 0 |  | tolerability [2]: no effect as compared to controls; IC50 (CMV [1]; Human betaherpesvirus 5, representative curve, FIG. 2A / FIG. 3A, read-out: IC50 value for this assay (inhibition of CMV plaque formation, dose response curve)): 1200 nM; antiviral efficacy by quantitation of viral DNA (CMV [5]): far superior to that of artesunate; antiviral activity compared to artesunate (CMV [6]): Superior antiviral activity; anti-angiogenic effect compared to dihydroartemisinin (human endothelial cells): significantly less anti-angiogenic than dihydroartemisinin; cytotoxicity [7]: no cytotoxicity; neurotoxicity [8]: does not elicit neurotoxicity
C[C@H]1[C@H](OC(=O)CCC(=O)O)O[C@@H]2O[C@@]3(C)CC[C@H]4[C@H](C)CC[C@@H]1[C@@]24OO3 [Artesunate, artesunate, reference compound] | 10800 ± 4200 |  |  |  |  |  | IC50 (CMV [1]; Human betaherpesvirus 5, read-out: IC50 value for this assay (inhibition of CMV plaque formation, dose response curve)): 15000 nM
Nc1nc(O)c2ncn(COC(CO)CO)c2n1 [Ganciclovir, ganciclovir] |  | did not inhibit IE gene expression | 5.97 | highly efficient reduction | 0.18 | 1500 | CMV antigen-positive cells per field (N) [3, 10]: 33 ± 5; CMV antigen-positive cells per field (N) [4, 11]: 1 ± 0.25
Nc1nc2c(ncn2COCCO)c(=O)[nH]1 [acyclovir] |  |  |  |  |  | 18300 | 
CC1CCC2[C@@H](C)[C@H](NS(N)(=O)=O)OC3O[C@]4(C)CCC1C32OO4 (stereo partly drawn) [compound IX] |  |  |  |  |  |  | IC50 (CMV [1]; Human betaherpesvirus 5, 240 h, at least three separate experiments averaged, 10 days incubation, read-out: IC50 (drug concentration required to reduce the number of plaques to 50% of control), mean ± standard deviation): 2100 ± 600 nM
